Tested on: brains, heart, liver, muscle, and DRG of the NHPs
Assay: Maturation of TTM-001 and TTM-002 capsids, NGS enrichment in NHP tissues
Type: in vivo
Description: This Example describes maturation of the AAV9 capsid variants, TTM-001 (SEQ ID NO: 981 (amino acid) and 983 (DNA), comprising SEQ ID NO: 941 (encoded by SEQ ID NO: 942)) and TTM-002 (SEQ ID NO: 982 (amino acid) and 984 (DNA), comprising SEQ ID NO: […] (encoded by SEQ ID NO: 944)) in NHPs to further enhance their transduction and biodistribution in the central nervous system as well as other tissues, and evolve the AAV capsid variants to provide further cross-species compatibility. Two approaches were used to mature the TTM-001 and TTM-002 capsid sequences in order to randomize and mutate within and around the peptide insert comprised within loop IV of the capsid variant. […] In the first maturation approach, sets of three contiguous amino acids were randomized across the mutagenesis region in the TTM-001 and TTM-002 sequences, which spanned from position 450 to position 466, numbered according to SEQ ID NO: 981 and 982. In the second maturation approach, mutagenic primers were used to introduce point mutations at a low frequency, scattered across the mutagenesis region in the TTM-001 and TTM-002 sequences ranging from position 449 to position 466, numbered according to SEQ ID NO: 981 and 982. AAV capsid variants arising from each maturation approach for TTM-001 and TTM-002 were pooled together, for subsequent testing and characterization in NHPs.
The library of pooled matured AAV capsid variants generated using the first maturation approach and the second maturation approach for the TTM-001 and TTM-002 AAV capsid variants were injected into two NHPs. […] Following RNA recovery and RT-PCR amplification, a systematic NGS enrichment analysis was performed to calculate the fold enrichment ratio relative to an AAV9 control, and the peptides comprised within the variants were identified.
Following the RNA recovery and NGS analysis from the second maturation approach, approximately 680,000 capsid variants were identified. The 680,000 matured capsid variants were then filtered based on samples with a raw virus count greater than 10 and a coefficient of variance (CV) of less than 1, which was calculated for each peptide across the brain samples taken from the two NHPs. […] Using this filtering criteria, this led to approximately 64,000 matured capsid variants.

[1] = NHP DRG, NGS, relative to AAV9 control
[2] = NHP brain, NGS, relative to AAV9 control
[3] = NHP heart, NGS, relative to AAV9 control
[4] = NHP liver DNA, NGS, relative to AAV9 control
[5] = NHP liver RNA, NGS, TTM-001 and TTM-002 matured AAV capsid variants, relative to AAV9 control
[6] = NHP muscle, NGS, relative to AAV9 control

KTINGSGSPHSTTCNQQT
Fold Enrichment relative to AAV9, DRG (NHP) [1]: 0.000 fold | Fold Enrichment relative to AAV9, Brain (NHP) [2]: 0.000 fold | Fold Enrichment relative to AAV9, Heart (NHP) [3]: 0.000 fold | Fold Enrichment relative to AAV9, Liver DNA (NHP) [4]: 3.315 fold | Fold Enrichment relative to AAV9, Liver RNA (NHP) [5]: 23.771 fold | Fold Enrichment relative to AAV9, Muscle (NHP) [6]: 0.000 fold

KTINGSGSPHSVFENQQT
Fold Enrichment relative to AAV9, DRG (NHP) (NGS fold-enrichment, DRG, NHP, relative to AAV9): 0.000 fold | Fold Enrichment relative to AAV9, Brain (NHP) (NGS fold-enrichment, brain, NHP, relative to AAV9): 0.000 fold | Fold Enrichment relative to AAV9, Heart (NHP) (NGS fold-enrichment, heart, NHP, relative to AAV9): 0.000 fold | Fold Enrichment relative to AAV9, Liver DNA (NHP) (NGS fold-enrichment, liver DNA, NHP, relative to AAV9): 0.224 fold | Fold Enrichment relative to AAV9, Liver RNA (NHP) (NGS fold-enrichment, liver RNA, NHP, relative to AAV9): 10.218 fold | Fold Enrichment relative to AAV9, Muscle (NHP) (NGS fold-enrichment, muscle, NHP, relative to AAV9): 0.000 fold

KTINGSGSPHSVKKNQQT
Fold Enrichment relative to AAV9, DRG (NHP) [1]: 0.000 fold | Fold Enrichment relative to AAV9, Brain (NHP) [2]: 0.000 fold | Fold Enrichment relative to AAV9, Heart (NHP) [3]: 0.000 fold | Fold Enrichment relative to AAV9, Liver DNA (NHP) [4]: 3.908 fold | Fold Enrichment relative to AAV9, Liver RNA (NHP) [5]: 48.475 fold | Fold Enrichment relative to AAV9, Muscle (NHP) [6]: 0.000 fold

KTINGSGSPHSVRCNQQT
Fold Enrichment relative to AAV9, DRG (NHP) [1]: 0.000 fold | Fold Enrichment relative to AAV9, Brain (NHP) [2]: 0.000 fold | Fold Enrichment relative to AAV9, Heart (NHP) [3]: 0.000 fold | Fold Enrichment relative to AAV9, Liver DNA (NHP) [4]: 3.912 fold | Fold Enrichment relative to AAV9, Liver RNA (NHP) [5]: 15.860 fold | Fold Enrichment relative to AAV9, Muscle (NHP) [6]: 0.000 fold

KTINGSGSPHSVRYNQQT
Fold Enrichment relative to AAV9, DRG (NHP) [1]: 0.000 fold | Fold Enrichment relative to AAV9, Brain (NHP) [2]: 0.000 fold | Fold Enrichment relative to AAV9, Heart (NHP) [3]: 0.000 fold | Fold Enrichment relative to AAV9, Liver DNA (NHP) [4]: 1.413 fold | Fold Enrichment relative to AAV9, Liver RNA (NHP) [5]: 16.390 fold | Fold Enrichment relative to AAV9, Muscle (NHP) [6]: 0.000 fold

KTINGSGSPHSWAPNQQT
Fold Enrichment relative to AAV9, DRG (NHP) [1]: 0.000 fold | Fold Enrichment relative to AAV9, Brain (NHP) [2]: 0.000 fold | Fold Enrichment relative to AAV9, Heart (NHP) [3]: 0.000 fold | Fold Enrichment relative to AAV9, Liver DNA (NHP) [4]: 1.789 fold | Fold Enrichment relative to AAV9, Liver RNA (NHP) [5]: 47.897 fold | Fold Enrichment relative to AAV9, Muscle (NHP) [6]: 0.000 fold

KTINGSGSPHSWLKNQQT
Fold Enrichment relative to AAV9, DRG (NHP) [1]: 0.000 fold | Fold Enrichment relative to AAV9, Brain (NHP) [2]: 0.000 fold | Fold Enrichment relative to AAV9, Heart (NHP) [3]: 0.000 fold | Fold Enrichment relative to AAV9, Liver DNA (NHP) [4]: 0.603 fold | Fold Enrichment relative to AAV9, Liver RNA (NHP) [5]: 13.995 fold | Fold Enrichment relative to AAV9, Muscle (NHP) [6]: 0.000 fold

KTINGSGSPHSYAFNQQT
Fold Enrichment relative to AAV9, DRG (NHP) [1]: 0.000 fold | Fold Enrichment relative to AAV9, Brain (NHP) [2]: 0.000 fold | Fold Enrichment relative to AAV9, Heart (NHP) [3]: 0.000 fold | Fold Enrichment relative to AAV9, Liver DNA (NHP) [4]: 1.742 fold | Fold Enrichment relative to AAV9, Liver RNA (NHP) [5]: 43.037 fold | Fold Enrichment relative to AAV9, Muscle (NHP) [6]: 0.000 fold

KTINGSGSPHSYARNQQT
Fold Enrichment relative to AAV9, DRG (NHP) [1]: 0.000 fold | Fold Enrichment relative to AAV9, Brain (NHP) [2]: 0.000 fold | Fold Enrichment relative to AAV9, Heart (NHP) [3]: 0.000 fold | Fold Enrichment relative to AAV9, Liver DNA (NHP) [4]: 0.996 fold | Fold Enrichment relative to AAV9, Liver RNA (NHP) [5]: 11.131 fold | Fold Enrichment relative to AAV9, Muscle (NHP) [6]: 0.000 fold

KTINGSGSPHSYLVNQQT
Fold Enrichment relative to AAV9, DRG (NHP) [1]: 0.000 fold | Fold Enrichment relative to AAV9, Brain (NHP) [2]: 0.000 fold | Fold Enrichment relative to AAV9, Heart (NHP) [3]: 0.000 fold | Fold Enrichment relative to AAV9, Liver DNA (NHP) [4]: 1.267 fold | Fold Enrichment relative to AAV9, Liver RNA (NHP) [5]: 17.766 fold | Fold Enrichment relative to AAV9, Muscle (NHP) [6]: 0.000 fold

KTINGSGSPHSYMRNQQT
Fold Enrichment relative to AAV9, DRG (NHP) [1]: 0.000 fold | Fold Enrichment relative to AAV9, Brain (NHP) [2]: 0.000 fold | Fold Enrichment relative to AAV9, Heart (NHP) [3]: 0.000 fold | Fold Enrichment relative to AAV9, Liver DNA (NHP) [4]: 2.293 fold | Fold Enrichment relative to AAV9, Liver RNA (NHP) [5]: 20.007 fold | Fold Enrichment relative to AAV9, Muscle (NHP) [6]: 0.000 fold

KTINGSGSPHSYTRNQQT
Fold Enrichment relative to AAV9, DRG (NHP) [1]: 0.000 fold | Fold Enrichment relative to AAV9, Brain (NHP) [2]: 0.000 fold | Fold Enrichment relative to AAV9, Heart (NHP) [3]: 0.000 fold | Fold Enrichment relative to AAV9, Liver DNA (NHP) [4]: 1.986 fold | Fold Enrichment relative to AAV9, Liver RNA (NHP) [5]: 14.535 fold | Fold Enrichment relative to AAV9, Muscle (NHP) [6]: 0.000 fold
